This is an account of results in ChEMBL document CHEMBL5352472, “Mode of action of p-quinone derivatives with trypanocidal activity studied by experimental and in silico models” (Eur J Med Chem, 2023).

Each structure is given as a SMILES string.

The subject of data set [1] is Trypanosoma cruzi. Nature of the data set: Trypanocidal activity against Trypanosoma cruzi DM28c amastigotes expressing red-shifted luciferase gene infected in african green monkey Vero cells incubated at 10 uM for 72 hrs by microplate luminometer analysis relative to control. The format is functional.
A short description of data set [2]: Selectivity index, ratio of CC50 for cytotoxicity against mouse J774 cells to EC50 for trypanocidal activity against blood stream form Trypanosoma brucei 427. The class given is toxicity, cell-based. The note with it: read-out: Ratio CC50/EC50.
The test system of data set [3] is Trypanosoma brucei. Nature of the data set: Redox activity against blood stream form Trypanosoma brucei 427 expressing redox-sensitive green fluorescent protein fused human glutaredoxin assessed as biosensor oxidation by measuring fluorescence at 2 times EC50 incubated for 1 hr by propidium iodide staining based flow cytometric analysis relative to control. The format is functional.

The test system of data set [4] is Trypanosoma brucei. Put plainly: Trypanocidal activity against blood stream form Trypanosoma brucei 427 expressing red-shifted luciferase gene measured after 24 hrs by microplate luminometer analysis. The class given is functional, organism-based. The conditions noted are these: Trypanosoma brucei, 427, 24 h.
Data set [5] deals with Leishmania infantum. Put plainly: Antileishmanial activity against Leishmania infantum MHOM/MA/67/ITMAP263 promastigotes expressing red-shifted luciferase gene infected in mouse J774 cells incubated at 10 uM for 24 hrs by microplate luminometer analysis relative to control. The class given is functional.
The nature of data set [6]: Cytotoxicity against mouse J774 cells after 24 hrs by WST-1 assay. The format is toxicity, cell-based. Background: Formazan colour is commonly taken as a measure of viable cells.
Data set [7] can be described thus: Selectivity index, ratio of CC50 for cytotoxicity against mouse J774 cells to EC50 for trypanocidal activity against Trypanosoma cruzi DM28c amastigotes. The class given is toxicity, cell-based. The note with it: read-out: Ratio CC50/EC50.
Data set [8] deals with Leishmania infantum. Put plainly: Antileishmanial activity against Leishmania infantum MHOM/MA/67/ITMAP263 promastigotes expressing red-shifted luciferase gene infected in mouse J774 cells incubated at 20 uM for 24 hrs by microplate luminometer analysis relative to control. The format is functional.
Data set [9] has as its system Trypanosoma cruzi. Put plainly: Trypanocidal activity against Trypanosoma cruzi DM28c amastigotes expressing red-shifted luciferase gene infected in african green monkey Vero cells incubated for 72 hrs by microplate luminometer analysis. The class given is functional, organism-based.
The subject of data set [10] is J774. Put plainly: Cytotoxicity against mouse J774 cells at 10 uM after 24 hrs by WST-1 assay relative to control. The note with it: j774, 24 h. The format is toxicity, cell-based.
The test system of data set [11] is Trypanosoma brucei. Put plainly: Redox activity against blood stream form Trypanosoma brucei 427 expressing redox-sensitive green fluorescent protein fused human glutaredoxin assessed as biosensor oxidation by measuring fluorescence at 1 times EC50 incubated for 1 hr by propidium iodide staining based flow cytometric analysis relative to control. The class given is functional. In general terms: A flow cytometer gives signals particle by particle.

In data set [12] the test system is Leishmania infantum. Nature of the data set: Antileishmanial activity against Leishmania infantum MHOM/MA/67/ITMAP263 promastigotes expressing red-shifted luciferase gene infected in mouse J774 cells incubated for 24 hrs by microplate luminometer analysis. The conditions noted are these: MHOM/MA/67/ITMAP263, J774, 24 h. The class given is functional, organism-based.

Data set [13] in a line: Selectivity index, ratio of CC50 for cytotoxicity against mouse J774 cells to EC50 for trypanocidal activity against Leishmania infantum MHOM/MA/67/ITMAP263 promastigotes. The conditions noted are these: read-out: Ratio CC50/EC50. The class given is toxicity, cell-based.
Data set [14] deals with J774. Nature of the data set: Cytotoxicity against mouse J774 cells at 50 uM after 24 hrs by WST-1 assay relative to control. The format is toxicity, cell-based. The conditions noted are these: j774, 24 h.

Usually EC50 stands for the concentration giving half of the maximal effect. The term CC50 denotes the concentration at which the toxic effect on the cells reaches its halfway point. On to `O=C1C=CC(=O)c2oc(-c3ccccc3)cc21`, for which the Activity was determined as 88% in the data set with Trypanosoma cruzi [1], 95.33% in the data set with Trypanosoma brucei [3] and 129% with Leishmania infantum [5]. Moreover, the selectivity ratio in data set [2] is 44. In addition, the concentration giving a half-maximal response (EC50) in the data set with Trypanosoma brucei [4] turned out to be 2.7 µM. Besides, it took 118 µM to reach half-maximal cytotoxicity in data set [6] (CC50 at 24 h).

Regarding `COc1ccc(OC2=CC(=O)c3nc(-c4ccccc4)sc3C2=O)cc1`, the selectivity ratio stood at 71 in data set [7] and 43 in [2]. Moreover, the figures for the Activity in the data set with Leishmania infantum [8] and with Trypanosoma brucei [3] were 90% and 89.22%, respectively. For the same compound, the concentration giving a half-maximal response (EC50) in the data set with Trypanosoma brucei [4] is 1.8 µM; in the data set with Trypanosoma cruzi [9], 1.1 µM. Further, in data set [6], the CC50 at 24 h amounted to 78 µM.

As for `O=C1C=C(Br)C(=O)c2oc(-c3ccccc3)nc21`, the selectivity ratio in [2] is below 6. Further, the Activity came to 20.95% with Trypanosoma brucei [3] and 10% in the data set on J774 [10]. In the data set on Trypanosoma brucei [4], the EC50 came to 1.6 µM. In addition, the 50% cytotoxic concentration (CC50) at 24 h in data set [6] was below 10 µM.

On to `O=C1C=CC(=O)c2oc(-c3ccccc3)nc21`, for which the selectivity ratio in data set [2] is below 4. The Activity with Trypanosoma brucei [3] came out at 100%; in the data set with J774 [10], 21%. The EC50 in the data set with Trypanosoma brucei [4] was found to be 2.3 µM. The same compound gave a CC50 at 24 h in data set [6] below 10 µM.

For `O=C1C(Nc2ccccc2)=C(Br)C(=O)c2sc(-c3ccccc3)nc21`, the selectivity ratio in data set [2] was below 22. In addition, the Activity in the data set with Trypanosoma brucei [3] came to 85.67%; with J774 [10], 117%. The EC50 in the data set with Trypanosoma brucei [4] was 0.5 µM. For the same compound, in data set [6], the CC50 at 24 h is below 10 µM.

For `O=C1C=C(Oc2ccccc2)C(=O)c2oc(-c3ccccc3)cc21`, in the data set on Trypanosoma brucei [11], the Activity worked out at 85.4%. Further, the selectivity ratio in data set [2] was 13. Moreover, the EC50 in the data set on Trypanosoma brucei [4] is 2.9 µM. In [6], this compound showed a CC50 at 24 h of 37 µM.

As for `CCCCCCCCCCCCCCCCOP(=O)([O-])OCC[N+](C)(C)C` [MILTEFOSINE], the EC50 in the data set on Leishmania infantum [12] was determined as 38.2 µM. In data set [13], the selectivity ratio was around 1. Also, it took 50 µM to reach half-maximal cytotoxicity in data set [6] (CC50 at 24 h).

In the case of `COc1ccc2cc(OC3=CC(=O)c4ccccc4C3=O)ccc2c1`, in [2], the selectivity ratio was around 10. Besides, the Activity in the data set with Trypanosoma brucei [3] stood at 59.07%; in the data set on J774 [14], 57%. The EC50 with Trypanosoma brucei [4] came out at 5.2 µM. Also, the CC50 at 24 h in data set [6] was around 50 µM.

`O=C1C(Nc2ccccc2)=C(Br)C(=O)c2oc(-c3ccccc3)cc21`: the selectivity ratio in [7] was determined as 71; in data set [2], 63. The Activity stood at 71.31% in the data set with Trypanosoma brucei [11] and 102% with Leishmania infantum [5]. Also, the concentration for a half-maximal effect (EC50) in the data set on Trypanosoma brucei [4] is 0.9 µM; with Trypanosoma cruzi [9], 0.8 µM. This compound registered a CC50 at 24 h in data set [6] of 57 µM.

As for `O=C1C=C(Br)C(=O)c2sc(-c3ccccc3)nc21`, the Activity came to 78% in the data set with Trypanosoma cruzi [1], 91% with Leishmania infantum [8] and 96.99% in the data set with Trypanosoma brucei [3]. The selectivity ratio in data set [2] is 40. For the same compound, the EC50 in the data set with Trypanosoma brucei [4] is 1.5 µM. In data set [6], this compound had a CC50 at 24 h of 61 µM.

Turning to `O=C1C(Nc2ccccc2)=C(Br)C(=O)c2oc(-c3ccccc3)nc21`, in data set [2], the selectivity ratio is below 5. Further, the results for the Activity in the data set on Trypanosoma brucei [3] and in the data set with J774 [10] were 95.87% and 0.5%, respectively. The EC50 with Trypanosoma brucei [4] was determined as 1.9 µM. In data set [6], this compound returned a cytotoxic concentration (CC50) at 24 h below 10 µM.

For the compound `C[C@@H]1[C@H](O)[C@@H](C)/C=C/C=C/C=C/C=C/C=C/C=C/C=C/[C@H](O[C@@H]2O[C@H](C)[C@@H](O)[C@H](N)[C@@H]2O)C[C@@H]2O[C@](O)(C[C@@H](O)C[C@@H](O)[C@H](O)CC[C@@H](O)C[C@@H](O)CC(=O)O[C@H]1C)C[C@H](O)[C@H]2C(=O)O` [AMPHOTERICIN B], in the data set with Leishmania infantum [12], the concentration giving a half-maximal response (EC50) is 0.035 µM. Besides, the selectivity ratio in data set [13] worked out at 257. Further, the CC50 at 24 h in [6] stood at 9 µM.

As to `O=C1C=CC(=O)c2sc(-c3ccccc3)nc21`, in data set [2], the selectivity ratio is below 8. The Activity in the data set with Trypanosoma brucei [3] was found to be 99.42%; in the data set with J774 [10], 0%. The EC50 in the data set with Trypanosoma brucei [4] amounted to 1.3 µM. In [6], this compound displayed a CC50 at 24 h below 10 µM.

For the compound `O=C1C=C(Br)C(=O)c2oc(-c3ccccc3)cc21`, in the data set on Trypanosoma brucei [11], the Activity turned out to be 99.25%. Besides, the selectivity ratio in data set [2] is 2. In addition, the half-maximal effective concentration (EC50) in the data set with Trypanosoma brucei [4] stood at 38 µM. The compound further displayed a CC50 at 24 h in [6] of 59 µM.

On to `CC(C)(C)c1ccc(OC2=CC(=O)c3ccccc3C2=O)cc1`, for which the Activity with Trypanosoma brucei [11] came to 81.7%; with J774 [14], 24%. Further, in data set [2], the selectivity ratio is below 9. In addition, the EC50 in the data set on Trypanosoma brucei [4] was 5.5 µM. The same compound had a half-maximal cytotoxic concentration (CC50) at 24 h in data set [6] below 50 µM.

As for `O=C1C=C(Oc2ccc3cccnc3c2)C(=O)c2ccccc21`, the selectivity ratio in [2] was below 13. Further, the Activity with Trypanosoma brucei [3] is 7.92%; in the data set with J774 [14], 37%. Besides, the EC50 with Trypanosoma brucei [4] is 3.8 µM. Also, the CC50 at 24 h in data set [6] was below 50 µM.

Consider `O=C1C=C(Oc2ccccc2)C(=O)c2sc(-c3ccccc3)nc21`, for which the Activity with Trypanosoma brucei [11] came out at 95.51%; with J774 [10], 40%. In addition, the selectivity ratio in data set [2] is below 6. Also, in the data set with Trypanosoma brucei [4], the 50% effective concentration (EC50) was found to be 1.8 µM. Also, the CC50 at 24 h in data set [6] is below 10 µM.

Consider `CC1CS(=O)(=O)CCN1/N=C/c1ccc([N+](=O)[O-])o1` (stereo not given) [NIFURTIMOX], for which the selectivity ratio in data set [7] is 142; in data set [2], 19. Besides, in the data set with Leishmania infantum [8], the Activity is recorded as 137%. Besides, the concentration giving a half-maximal response (EC50) with Trypanosoma brucei [4] is 5.3 µM; in the data set with Trypanosoma cruzi [9] it was 0.7 µM. It took 100 µM to reach half-maximal cytotoxicity in data set [6] (CC50 at 24 h).

Consider `O=C1C=C(Oc2ccccc2)C(=O)c2oc(-c3ccccc3)nc21`, for which the selectivity ratio in data set [2] is 14. Also, the Activity in the data set with Trypanosoma brucei [3] is reported as 94.92%. In the data set with Trypanosoma brucei [4], the EC50 was 3.3 µM. The compound also showed a CC50 at 24 h in data set [6] of 46 µM.

For `O=C1C=C(Oc2ccc(F)cc2)C(=O)c2sc(-c3ccccc3)nc21`, the selectivity ratio in data set [2] is below 2. Besides, the Activity in the data set on Trypanosoma brucei [3] is listed as 92.06%; in the data set on J774 [10] it was 5%. The concentration giving a half-maximal response (EC50) in the data set with Trypanosoma brucei [4] is 5 µM. This compound showed a cytotoxic concentration (CC50) at 24 h in data set [6] below 10 µM.

Consider `O=C1C=C(Oc2ccc3cc(O)ccc3c2)C(=O)c2ccccc21`, for which the selectivity ratio in data set [2] is around 14. Moreover, the Activity with Trypanosoma brucei [3] was found to be 40.54%; in the data set with J774 [14], 63%. The concentration giving a half-maximal response (EC50) in the data set on Trypanosoma brucei [4] came out at 4.3 µM. In addition, the CC50 at 24 h in [6] is around 50 µM.

Regarding `O=C1C=C(Oc2ccc(CO)cc2)C(=O)c2ccccc21`, the selectivity ratio in data set [2] was around 11. The Activity in the data set with Trypanosoma brucei [3] is recorded as 87.33%; with J774 [14], 49%. Moreover, in the data set with Trypanosoma brucei [4], the EC50 worked out at 4.6 µM. This compound also gave a CC50 at 24 h in data set [6] of around 50 µM.
